Experimental data as given in patent US20120270819A1, “USE OF COMPOUNDS WITH SGLT-1/SGLT-2 INHIBITOR ACTIVITY FOR PRODUCING MEDICAMENTS FOR TREATMENT OF BONE DISEASE” (SANOFI, priority 2009, published 2012).

Test system: female Sprague-Dawley mature and young adult rats
Assay: Ex vivo dual energy X-ray absorptiometry (DXA) of right femur, 28-day oral rat study
Format: in vivo
Conditions: Mature Adults
Description: The following were evaluated: clinical signs (at least weekly), body weight (weekly), food consumption (weekly), hormones (Days 13 and 27), serum and urinary biochemical markers of bone turnover (Days 13 and 27), serum chemistry (at necropsy), bone densitometry by dual energy X-ray absorptiometry (DXA) and peripheral quantitative computed tomography (pQCT) (Week 2 and 4, as well as ex vivo), macroscopic observations at necropsy, organ weights, histopathology, biomechanical strength testing and femoral length measurements.
3.1 Ex Vivo Dual Energy X-Ray Absorptiometry (DXA)
DXA was used to measure bone mineral density (BMD), bone mineral content (BMC) and area. Single DXA scans were obtained for the excised right femur from all animals euthanized at the end of the treatment period (except three animals due to damaged femoral condyles) as well as two found dead animals. These exclusions had no adverse impact on the overall outcome of the study as sufficient specimens were measured in each groups. Scans were performed with a Hologic Discovery A bone densitometer as per PCS-MTL Standard Operating Procedures.

Q: What does the source list for `COc1ccc(Cc2c(OC3OC(CO)C(F)C(O)C3O)n[nH]c2C(F)(F)F)cc1` (stereo not drawn) [Example 5 of formula II]?
A: DXA femur Distal Area, percent difference from Vehicle Control (10 mg/kg/day): 1.7%; DXA femur Distal BMC, percent difference from Vehicle Control (10 mg/kg/day): 6.2%; DXA femur Distal BMD, percent difference from Vehicle Control (10 mg/kg/day): 4.4%; DXA femur Global Area, percent difference from Vehicle Control (10 mg/kg/day): 1.9%; DXA femur Global BMC, percent difference from Vehicle Control (10 mg/kg/day): 6.0%; DXA femur Global BMD, percent difference from Vehicle Control (10 mg/kg/day): 4.0%; DXA femur Mid Area, percent difference from Vehicle Control (10 mg/kg/day): 3.9%; DXA femur Mid BMC, percent difference from Vehicle Control (10 mg/kg/day): 6.4%; DXA femur Mid BMD, percent difference from Vehicle Control (10 mg/kg/day): 2.4%; DXA femur Proximal Area, percent difference from Vehicle Control (10 mg/kg/day): 2.4%; DXA femur Proximal BMC, percent difference from Vehicle Control (10 mg/kg/day): 6.1%; DXA femur Proximal BMD, percent difference from Vehicle Control (10 mg/kg/day): 3.7%; DXA femur Mid Area, percent difference from Vehicle Control (10 mg/kg/day (Table 5a)): 3.86%; DXA femur Mid BMC, percent difference from Vehicle Control (10 mg/kg/day (Table 5a)): 6.45%; DXA femur Mid BMD, percent difference from Vehicle Control (10 mg/kg/day (Table 5a)): 2.35%; DXA femur Distal Area (10 mg/kg/day, mean): 0.41 cm^2; DXA femur Distal BMC (10 mg/kg/day, mean): 0.14 g; DXA femur Distal BMD (10 mg/kg/day, mean): 0.34 g/cm^2; DXA femur Global Area (10 mg/kg/day, mean): 1.91 cm^2; DXA femur Global BMC (10 mg/kg/day, mean): 0.52 g; DXA femur Global BMD (10 mg/kg/day, mean): 0.27 g/cm^2; DXA femur Mid Area (10 mg/kg/day, mean): 0.45 cm^2; DXA femur Mid BMC (10 mg/kg/day, mean): 0.11 g; DXA femur Mid BMD (10 mg/kg/day, mean): 0.24 g/cm^2; DXA femur Proximal Area (10 mg/kg/day, mean): 0.63 cm^2; DXA femur Proximal BMC (10 mg/kg/day, mean): 0.18 g; DXA femur Proximal BMD (10 mg/kg/day, mean): 0.28 g/cm^2; DXA femur Mid Area (10 mg/kg/day, mean (Table 5a)): 0.45 cm^2; DXA femur Mid BMC (10 mg/kg/day, mean (Table 5a)): 0.11 g; DXA femur Mid BMD (10 mg/kg/day, mean (Table 5a)): 0.24 g/cm^2; DXA femur Distal Area, percent difference from Vehicle Control (50 mg/kg/day): −0.1%; DXA femur Distal BMC, percent difference from Vehicle Control (50 mg/kg/day): 8.3%; DXA femur Distal BMD, percent difference from Vehicle Control (50 mg/kg/day): 8.4%; DXA femur Global Area, percent difference from Vehicle Control (50 mg/kg/day): −1.2%; DXA femur Global BMC, percent difference from Vehicle Control (50 mg/kg/day): 3.7%; DXA femur Global BMD, percent difference from Vehicle Control (50 mg/kg/day): 5.0%; DXA femur Mid Area, percent difference from Vehicle Control (50 mg/kg/day): −1.0%; DXA femur Mid BMC, percent difference from Vehicle Control (50 mg/kg/day): 1.2%; DXA femur Mid BMD, percent difference from Vehicle Control (50 mg/kg/day): 2.3%; DXA femur Proximal Area, percent difference from Vehicle Control (50 mg/kg/day): 0.1%; DXA femur Proximal BMC, percent difference from Vehicle Control (50 mg/kg/day): 3.0%; DXA femur Proximal BMD, percent difference from Vehicle Control (50 mg/kg/day): 2.9%; DXA femur Mid Area, percent difference from Vehicle Control (50 mg/kg/day (Table 5a)): −0.97%; DXA femur Mid BMC, percent difference from Vehicle Control (50 mg/kg/day (Table 5a)): 1.25%; DXA femur Mid BMD, percent difference from Vehicle Control (50 mg/kg/day (Table 5a)): 2.26%; DXA femur Distal Area (50 mg/kg/day, mean): 0.41 cm^2; DXA femur Distal BMC (50 mg/kg/day, mean): 0.14 g; DXA femur Distal BMD (50 mg/kg/day, mean): 0.35 g/cm^2; DXA femur Global Area (50 mg/kg/day, mean): 1.85 cm^2; DXA femur Global BMC (50 mg/kg/day, mean): 0.51 g; DXA femur Global BMD (50 mg/kg/day, mean): 0.27 g/cm^2; DXA femur Mid Area (50 mg/kg/day, mean): 0.43 cm^2; DXA femur Mid BMC (50 mg/kg/day, mean): 0.11 g; DXA femur Mid BMD (50 mg/kg/day, mean): 0.24 g/cm^2; DXA femur Proximal Area (50 mg/kg/day, mean): 0.61 cm^2; DXA femur Proximal BMC (50 mg/kg/day, mean): 0.17 g; DXA femur Proximal BMD (50 mg/kg/day, mean): 0.28 g/cm^2; DXA femur Mid Area (50 mg/kg/day, mean (Table 5a)): 0.43 cm^2; DXA femur Mid BMC (50 mg/kg/day, mean (Table 5a)): 0.11 g; DXA femur Mid BMD (50 mg/kg/day, mean (Table 5a)): 0.24 g/cm^2
